Results as given in patent publication US20030158204A1, “Diamino phenothiazine derivatives and composition comprising same” (priority 2000, published 2003).

Assays:
[1] = test system: pernicious attacks resistant to quinine (malaria); details: IV route; cited from earlier work
[2] = used externally and internally; cited from earlier work
[3] = Hydrophilicity / water solubility; format: physicochemical; details: qualitative
Protocol: These derivatives more or less have the properties of methylene blue, are hydrosoluble, active by the enteral and parenteral route (IV, SC, etc.) and they never give rise to acute or chronic toxicity nor undesirable effects, at doses comprised between 0.05 mg/Kg and 40 mg/Kg.

[4] = Half life of the compound; details: qualitative

Row | hydrophilicity [3] | half life [4] | SMILES | activity on pernicious attacks resistant to quinine [1] | antiseptic activity [2]
1 | – | – | CN(C)c1ccc2nc3ccc(=[N+](C)C)cc-3sc2c1 [Methylene blue, methylene blue] | active | moderate
2 | very hydrophilic | short half life | CNc1ccc2nc3c(O)cc(N(C)C)cc3[s+]c2c1O [Example 4] | – | –
3 | decreased hydrophilicity | – | CNc1ccc2nc3c(C)cc(N(C)C)cc3[s+]c2c1C [Example 1, 4-5 dimethyl-7-(dimethylamino)-3(methylimino)-3H phenothiazine] | – | –

Row | SMILES | hydrophilicity [3] | half life [4] | activity on pernicious attacks resistant to quinine [1] | antiseptic activity [2]
4 | CNc1ccc2nc3c(Cl)cc(N(C)C)cc3[s+]c2c1C [Example 2] | more hydrophilic than the reference daughter molecule | considerably increases the half life | – | –
